# In PMC8379256, “A xanthene derivative, DS20060511, attenuates glucose intolerance by inducing skeletal muscle-specific GLUT4 translocation in mice” (Communications Biology, 2021):
# “And” between values parts separate entries of the source, which are not always exact repeats. Equal entries are not always repeated.
# Legend:
# C57BL/6 mice = assay: In vivo [3H]-2-DG uptake into tissues during intraperitoneal GTT; parameters: species or system mouse; details: for count (dpm) 2DG / count (dpm) Total / dpm/mg 2DG / dpm/mg 2DGP / dpm/mg Total / Ratio: 30 mg/kg; for Ratio: 2DGP relative to vehicle
# Description: Tissue glucose uptake was examined by measuring the uptake of [^3H]-2-DG during an intraperitoneal GTT as described previously[46],[47], with minor modifications. Mice that had been denied access to food overnight received oral administration of 30 mg kg^−1 of DS20060511 or vehicle 15 min prior to the glucose load. The mice then received intraperitoneal glucose administration (1 g kg^−1 containing 100 μCi kg^−1 [^3H]-2-DG as tracer), followed by quick removal of the tissues 60 min later. Tissue samples were homogenized in 0.5% perchloric acid and centrifuged, and the supernatants were neutralized with KOH. One aliquot of the supernatants was used for measuring the total radioactivity ([^3H]-2-DG and [^3H]-2-DG 6-phosphate ([^3H]-2-DGP)). A second aliquot of the supernatants was treated with 1 N Ba(OH)2 and 1 N ZnSO4 to remove [^3H]-2-DGP, and the [^3H]-2-DG count was measured. 2-DG uptake into the tissue, which is rapidly metabolized to 2-DGP in the tissue, was estimated by subtracting the count of [^3H]-2-DG from the total count. ^3H-specific activities were counted using a liquid scintillation counter.
# db/db mice = assay: Repeated (28-day) DS20060511 treatment of db/db mice; format: in vivo, mouse; parameters: Blood glucose after refeeding AUC: unit not given here; details: for Blood glucose after refeeding / Blood glucose after refeeding AUC: db/db
# Description: db/db mice were acclimatized to a 6 h restricted feeding pattern from 10 am to 4 pm prior to the start of the experiment. For 28 days from 6 weeks of age, the mice received oral administration of 10 mg kg^−^1 of DS20060511 or vehicle once a day, 15 min prior to their feeding. On day 1 and day 28, the blood glucose levels were measured between 10 am to 4 pm. Blood glucose levels were measured using Glutest Every in blood samples collected from the tail vein. Daily food intake was monitored throughout the study, and the body weight, blood glucose, and plasma insulin were measured on day 1 and day 28. The hemoglobin A1c (HbA1c) level was also measured with a HLC-723G8 Automated Glycohemoglobin Analyzer on day 1 and day 28 (Tosoh, Tokyo, Japan). The triceps surae muscle (skeletal muscle), heart, epididymal WAT, and liver were excised immediately after euthanasia, and the tissue weights were measured on day 29. The glycogen contents of the muscle, heart, and liver were measured as described previously,[52] with some modifications. In brief, each tissue sample (50–100 mg) was weighed and boiled in 0.75 mL of 8 M KOH. After cooling, 0.25 mL of 1 M Na2SO4, followed by 2 mL of 99.5% ethanol, was added to precipitate the glycogen. The samples were centrifuged and the glycogen precipitates were dissolved in distilled water. Glycogen was degraded to glucose by treatment with amyloglucosidase (Sigma–Aldrich) at 55 °C for 60 min, and the glucose concentration was determined with Glucose CII Test Wako (FUJIFILM Wako Pure Chemical).
# [1] = db/db mice, 10 mg/kg, Day 1, individual animals, 10 mg/kg
# [2] = db/db mice, 10 mg/kg, Day 28, individual animals, 10 mg/kg
smiles,measurement,setting,value
COc1ccc2c(C)c(C(=O)O)ccc2c1C1C2=C(CC(C)(C)CC2=O)OC2=C1C(=O)CC(C)(C)C2 [DS20060511],count (dpm) 2DG,C57BL/6 mice; Gastro.,405 dpm and 366 dpm and 390 dpm
same,count (dpm) Total,C57BL/6 mice; Gastro.,1890 dpm and 1397 dpm and 1924 dpm
same,dpm/mg 2DG,C57BL/6 mice; Gastro.,63.3 dpm/mg and 57.2 dpm/mg and 60.9 dpm/mg
same,dpm/mg 2DGP,C57BL/6 mice; Gastro.,54.8 dpm/mg and 30.1 dpm/mg and 59.3 dpm/mg
same,dpm/mg Total,C57BL/6 mice; Gastro.,118.1 dpm/mg and 87.3 dpm/mg and 120.3 dpm/mg
same,Ratio,C57BL/6 mice; Gastro.,4.35 and 2.39 and 4.70
same,count (dpm) 2DG,C57BL/6 mice; Heart,398 dpm and 423 dpm and 382 dpm
same,count (dpm) Total,C57BL/6 mice; Heart,1218 dpm and 1277 dpm and 1201 dpm
same,dpm/mg 2DG,C57BL/6 mice; Heart,62.2 dpm/mg and 66.1 dpm/mg and 59.7 dpm/mg
same,dpm/mg 2DGP,C57BL/6 mice; Heart,39.3 dpm/mg and 40.3 dpm/mg and 40.4 dpm/mg
same,dpm/mg Total,C57BL/6 mice; Heart,101.5 dpm/mg and 106.4 dpm/mg and 100.1 dpm/mg
same,Ratio,C57BL/6 mice; Heart,0.90 and 0.93
same,count (dpm) 2DG,C57BL/6 mice; Soleus,214 dpm and 169 dpm and 183 dpm
same,dpm/mg 2DG,C57BL/6 mice; Soleus,100.3 dpm/mg and 79.2 dpm/mg and 85.8 dpm/mg
same,dpm/mg Total,C57BL/6 mice; Soleus,286.0 dpm/mg and 229.5 dpm/mg and 201.0 dpm/mg
same,count (dpm) Total,"C57BL/6 mice; Soleus, 30 mg/kg po, 60 min during ip GTT",572 dpm and 459 dpm and 402 dpm
same,dpm/mg 2DGP,"C57BL/6 mice; Soleus, 2-DG uptake = Total minus 2DG",185.7 dpm/mg and 150.3 dpm/mg and 115.2 dpm/mg
same,Ratio,C57BL/6 mice; Soleus,4.96 and 4.02 and 3.08
same,count (dpm) 2DG,C57BL/6 mice; WAT,697 dpm and 877 dpm and 734 dpm
same,count (dpm) Total,C57BL/6 mice; WAT,1450 dpm and 1799 dpm and 1511 dpm
same,dpm/mg 2DG,C57BL/6 mice; WAT,34.9 dpm/mg and 43.9 dpm/mg and 36.7 dpm/mg
same,dpm/mg 2DGP,C57BL/6 mice; WAT,13.5 dpm/mg and 16.1 dpm/mg and 13.7 dpm/mg
same,dpm/mg Total,C57BL/6 mice; WAT,48.3 dpm/mg and 60.0 dpm/mg and 50.4 dpm/mg
same,Ratio,C57BL/6 mice; WAT,0.99 and 1.18 and 1.00
same,uptake of [3H]-2-DG (in words),"C57BL/6 mice; soleus and gastrocnemius muscles, ip GTT, 30 mg kg−1",significant increase
same,visible sign of toxicity,db/db mice; 28-day repeated-dose study in db/db mice,did not find any visible sign of toxicity
same,Body weight (g) Day 1,db/db mice; [1],25.2 g and 26.3 g and 27.7 g and 27.0 g and 28.4 g
same,Glucose (mg/dl) Day 1,db/db mice; [1],122 mg/dL and 152 mg/dL and 138 mg/dL and 136 mg/dL and 89 mg/dL and 180 mg/dL
same,Insulin (ng/ml) Day 1,db/db mice; [1],2.27 ng/mL and 4.08 ng/mL and 4.23 ng/mL and 4.25 ng/mL and 2.30 ng/mL and 3.38 ng/mL
same,Body weight (g) Day 28,db/db mice; [2],37.0 g and 39.8 g and 40.4 g and 39.6 g and 39.4 g and 41.1 g
same,Glucose (mg/dl) Day 28,db/db mice; [2],167 mg/dL and 157 mg/dL and 194 mg/dL and 145 mg/dL and 132 mg/dL and 155 mg/dL
same,Insulin (ng/ml) Day 28,db/db mice; [2],7.52 ng/mL and 5.68 ng/mL and 8.16 ng/mL and 6.98 ng/mL and 8.68 ng/mL and 6.72 ng/mL
same,Tissue weight (g) WAT,"db/db mice; db/db mice, 10 mg/kg, WAT, individual animals",1.93 g and 2.01 g and 2.15 g and 1.84 g and 1.69 g and 2.14 g
same,Tissue weight (g) Heart,"db/db mice; db/db mice, 10 mg/kg, heart, individual animals",0.11 g and 0.10 g
same,Tissue weight (g) Liver,"db/db mice; db/db mice, 10 mg/kg, liver, individual animals",1.31 g and 1.43 g and 1.57 g and 1.42 g and 1.77 g
same,Tissue weight (g) Muscle,"db/db mice; db/db mice, 10 mg/kg, muscle, individual animals",0.17 g and 0.18 g
same,HbA1c (%) Afrer,"db/db mice; db/db mice, DS20060511 10 mg/kg, after repeated treatment, individual animals, 10 mg/kg",3.6% and 3.4% and 3.3% and 3.8%
same,HbA1c (%) Delta,"db/db mice; db/db mice, DS20060511 10 mg/kg, change from pre to after, individual animals, 10 mg/kg",0.38% and 0.35% and 0.34% and 0.46% and 0.33% and 0.7%
same,HbA1c (%) Pre,"db/db mice; db/db mice, DS20060511 10 mg/kg, pre treatment (baseline), individual animals, 10 mg/kg",3.2% and 3.3% and 3.1% and 2.9%
same,blood glucose levels (in words),"db/db mice; db/db mice, 10 mg kg−1 day−1, day 1 to day 28",decreased significantly
same,"tissue weights of muscle, heart, WAT, liver; glycogen contents of muscle, heart, liver","db/db mice; db/db mice, 28-day treatment",no significant changes
same,hemoglobin A1c (HbA1c) value (in words),"db/db mice; db/db mice, chronic treatment, 4 weeks",significantly reduced
same,"body weight, food intake, fasting blood glucose level, fasting plasma insulin levels","db/db mice; db/db mice, vs vehicle",no statistically significant differences
same,Blood glucose after refeeding,"db/db mice; 10 mg/kg, Day 1, 0 hr, individual animals, 10 mg/kg",91 mg/dL and 54 mg/dL and 72 mg/dL and 70 mg/dL and 85 mg/dL and 96 mg/dL
same,Blood glucose after refeeding,"db/db mice; 10 mg/kg, Day 1, 0.5 hr, individual animals, 10 mg/kg",138 mg/dL and 112 mg/dL and 86 mg/dL and 108 mg/dL and 117 mg/dL and 130 mg/dL
same,Blood glucose after refeeding,"db/db mice; 10 mg/kg, Day 1, 1 hr, individual animals, 10 mg/kg",162 mg/dL and 145 mg/dL and 120 mg/dL and 136 mg/dL and 126 mg/dL and 147 mg/dL
same,Blood glucose after refeeding,"db/db mice; 10 mg/kg, Day 1, 2 hr, individual animals, 10 mg/kg",220 mg/dL and 154 mg/dL and 182 mg/dL and 126 mg/dL and 135 mg/dL and 171 mg/dL
same,Blood glucose after refeeding,"db/db mice; 10 mg/kg, Day 1, 4 hr, individual animals, 10 mg/kg",189 mg/dL and 177 mg/dL and 142 mg/dL and 139 mg/dL and 179 mg/dL and 259 mg/dL
same,Blood glucose after refeeding,"db/db mice; 10 mg/kg, Day 1, 6 hr, individual animals, 10 mg/kg",261 mg/dL and 247 mg/dL and 262 mg/dL and 136 mg/dL and 157 mg/dL and 294 mg/dL
same,Blood glucose after refeeding,"db/db mice; 10 mg/kg, Day 1, -0.25 hr, individual animals, 10 mg/kg",124 mg/dL and 77 mg/dL and 78 mg/dL and 106 mg/dL and 118 mg/dL
same,Blood glucose after refeeding AUC,"db/db mice; 10 mg/kg, Day 1, individual animals, 10 mg/kg",1236.0 and 1043.0 and 1019.0 and 813.5 and 939.5 and 1321.3
same,Blood glucose after refeeding,"db/db mice; 10 mg/kg, Day 28, 0 hr, individual animals, 10 mg/kg",140 mg/dL and 130 mg/dL and 193 mg/dL and 159 mg/dL and 136 mg/dL
same,Blood glucose after refeeding,"db/db mice; 10 mg/kg, Day 28, 0.5 hr, individual animals, 10 mg/kg",171 mg/dL and 147 mg/dL and 157 mg/dL and 168 mg/dL and 130 mg/dL and 217 mg/dL
same,Blood glucose after refeeding,"db/db mice; 10 mg/kg, Day 28, 1 hr, individual animals, 10 mg/kg",187 mg/dL and 108 mg/dL and 139 mg/dL and 164 mg/dL and 142 mg/dL and 240 mg/dL
same,Blood glucose after refeeding,"db/db mice; 10 mg/kg, Day 28, 2 hr, individual animals, 10 mg/kg",230 mg/dL and 128 mg/dL and 167 mg/dL and 182 mg/dL and 163 mg/dL and 274 mg/dL
same,Blood glucose after refeeding,"db/db mice; 10 mg/kg, Day 28, 4 hr, individual animals, 10 mg/kg",256 mg/dL and 306 mg/dL and 290 mg/dL and 274 mg/dL and 297 mg/dL and 345 mg/dL
same,Blood glucose after refeeding,"db/db mice; 10 mg/kg, Day 28, 6 hr, individual animals, 10 mg/kg",334 mg/dL and 357 mg/dL and 336 mg/dL and 316 mg/dL and 282 mg/dL and 356 mg/dL
same,Blood glucose after refeeding,"db/db mice; 10 mg/kg, Day 28, -0.25 hr, individual animals, 10 mg/kg",157 mg/dL and 175 mg/dL and 184 mg/dL and 155 mg/dL and 151 mg/dL and 135 mg/dL
same,Blood glucose after refeeding AUC,"db/db mice; 10 mg/kg, Day 28, individual animals, 10 mg/kg",1526.0 and 1424.3 and 1491.8 and 1462.3 and 1397.8 and 1875.8
